# Test results: patent US12195427B2, “MASP-2 inhibitors and methods of use” (priority 2018, dated 2025)
# Biological target: MASP-2 CCP2-SP (Homo sapiens (Human), UniProt O00187)
# Experiment: MASP-2 co-crystallization, X-ray crystallography and structure analysis (H-bonds, van der Waals contacts);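 on Ligand-pharmacophore element distance, pharmacophore element C2: distance from averaged pharmacophore element to bound ligand; missing value means element absent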;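 on Ligand-pharmacophore element distance, pharmacophore element C3: distance from averaged pharmacophore element to bound ligand; missing value means element absent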;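 on Ligand-pharmacophore element distance, pharmacophore element C4: distance from averaged pharmacophore element to bound ligand; missing value means element absent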;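 on Ligand-pharmacophore element distance, pharmacophore element C5: distance from averaged pharmacophore element to bound ligand; missing value means element absent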
# Design: van der Waals contact distance, MASP-2 HIS 483 atom CD2 / van der Waals contact distance, MASP-2 HIS 483 atom NE2 / van der Waals contact distance, SER 654 C to compound atom / van der Waals contact distance, SER 654 O to compound atom / van der Waals contact distance, TRP 655 C to compound atom / van der Waals contact distance, MASP-2 GLY 528 atom CA / van der Waals contact distance TRP 655 atom CZ3 / van der Waals contact distance TRP 655 atom N / van der Waals contact distance TRP 655 atom CE3 / van der Waals contact distance GLY 656 atom C / van der Waals contact distance GLY 656 atom CA / van der Waals contact distance GLY 656 atom O / van der Waals contact distance, MASP-2 TYR 607 atom CD1 / van der Waals contact distance, MASP-2 PRO 606 atom O / d(C3,CA1) / d(CA1,N1)2 / d(H4,O1) / d(H4,O2) / d(O1,O2) / d(CA1,O2) / d(CA6,O1) / d(CA6,O2) / d(CA1,C5) / d(O2,H3) / d(N2,C2) / d(CA5,N2) / d(N2,C4) / d(N2,C6) / d(N2,CA3) / d(N2,O3) / d(O4,H2): unit not given beside the values
# Conditions: Table A4-1; element C2
# From the text: This example illustrates the preparation of recombinant MASP-2 protein, based on UniProt O00187, human mannan-binding lectin serine protease 2. Expression constructs for human MASP-2 CCP2-SP and CCP2-SP-6HIS were generated for recombinant expression in E. coli cells.
# Typically, crystallization hits were obtained by screening against […] 96-well crystallization reagent kits (GRAS6, GRAS2, Hampton Research; MORPHEUS, Molecular Dimensions; Wizard 1&2 Cryo, Rigaku Reagents) and crystal growth was inspected by optical microscopy. Crystals were used directly or further optimized for X-ray diffraction. Crystals were captured with cryogenic loops and dipped into liquid nitrogen directly or cryoprotected with a 20% glycerol in crystallization formulation before flash-cooling in liquid nitrogen.
# Thereafter crystals are transferred once or twice for soaking within the crystallization solution containing the MASP-2 inhibitor.
# Crystals were diffracted with synchrotron X-rays of […] and X-ray diffraction datasets were collected at beamlines SSRL BL9-2, BL14-1, BL12-2 as well as ALS sector 5 using Dectris Pilatus and Eiger detectors. Structures were determined by molecular replacement using portions of the structure 1Q3X as search models and partially refined with Buster 2.10.2 or Refmac 5.8. […] When multiple ligand poses were observed, for instance arising from multiple molecules in the asymmetric unit or refined dual poses within the same molecule, only one pose was selected and analyzed.
# LigPlot+ calls these ‘nonbonded contacts’ or ‘hydrophobic contacts’. Despite the name, there are atom pairings that include possible H-bonds. Thus, in some instances, the Table A2 also contains H-bond interactions.
# Sequence of MASP-2 CCP2-SP (O00187 445-686): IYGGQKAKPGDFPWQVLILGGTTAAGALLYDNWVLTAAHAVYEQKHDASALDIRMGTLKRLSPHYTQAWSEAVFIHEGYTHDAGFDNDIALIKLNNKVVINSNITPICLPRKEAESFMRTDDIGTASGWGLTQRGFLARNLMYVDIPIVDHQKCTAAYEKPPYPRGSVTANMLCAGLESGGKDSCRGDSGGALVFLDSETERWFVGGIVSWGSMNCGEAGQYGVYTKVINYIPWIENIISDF
# Sequence of MASP-2 CCP2-SP (O00187 364-432 partner): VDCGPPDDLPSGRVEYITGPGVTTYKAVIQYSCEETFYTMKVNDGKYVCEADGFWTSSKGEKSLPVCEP
row,Compound,"Ligand-pharmacophore element distance, pharmacophore element C2"
1,C[C@H](NC(=O)[C@H]1C[C@@H](c2ccccc2)CCN1)C(=O)NCc1cc(Cl)ccc1O.Cl [1078_5],0.71
2,C[C@H](NC(=O)[C@H]1C[C@@H](c2ccccc2)CCN1)C(=O)NCc1cc(Cl)ccc1O.Cl [1078_6],1.09

# Same assay, conditions: Table A4-1; element C3
row,Compound,"Ligand-pharmacophore element distance, pharmacophore element C3"
1,C[C@H](NC(=O)[C@H]1C[C@@H](c2ccccc2)CCN1)C(=O)NCc1cc(Cl)ccc1O.Cl [1078_5],0
2,C[C@H](NC(=O)[C@H]1C[C@@H](c2ccccc2)CCN1)C(=O)NCc1cc(Cl)ccc1O.Cl [1078_6],0

# Same assay, conditions: Table A4-1; element C4
row,Compound,"Ligand-pharmacophore element distance, pharmacophore element C4"
1,C[C@H](NC(=O)[C@H]1C[C@@H](c2ccccc2)CCN1)C(=O)NCc1cc(Cl)ccc1O.Cl [1078_5],0
2,C[C@H](NC(=O)[C@H]1C[C@@H](c2ccccc2)CCN1)C(=O)NCc1cc(Cl)ccc1O.Cl [1078_6],0

# Same assay, conditions: Table A4-1; element C5
row,Compound,"Ligand-pharmacophore element distance, pharmacophore element C5"
1,C[C@H](NC(=O)[C@H]1C[C@@H](c2ccccc2)CCN1)C(=O)NCc1cc(Cl)ccc1O.Cl [1078_5],0.42
2,C[C@H](NC(=O)[C@H]1C[C@@H](c2ccccc2)CCN1)C(=O)NCc1cc(Cl)ccc1O.Cl [1078_6],0.48

# Same assay, conditions: Table A4-1; element C6
row,Compound,"Ligand-pharmacophore element distance, pharmacophore element C6"
1,C[C@H](NC(=O)[C@H]1C[C@@H](c2ccccc2)CCN1)C(=O)NCc1cc(Cl)ccc1O.Cl [1078_5],0
2,C[C@H](NC(=O)[C@H]1C[C@@H](c2ccccc2)CCN1)C(=O)NCc1cc(Cl)ccc1O.Cl [1078_6],0

# Same assay, conditions: Table A4-1; element C7
row,Compound,"Ligand-pharmacophore element distance, pharmacophore element C7"
1,C[C@H](NC(=O)[C@H]1C[C@@H](c2ccccc2)CCN1)C(=O)NCc1cc(Cl)ccc1O.Cl [1078_5],0
2,C[C@H](NC(=O)[C@H]1C[C@@H](c2ccccc2)CCN1)C(=O)NCc1cc(Cl)ccc1O.Cl [1078_6],0

# Same assay, conditions: Table A4-1; element CA1
row,Compound,"Ligand-pharmacophore element distance, pharmacophore element CA1"
1,C[C@H](NC(=O)[C@H]1C[C@@H](c2ccccc2)CCN1)C(=O)NCc1cc(Cl)ccc1O.Cl [1078_5],1.76
2,C[C@H](NC(=O)[C@H]1C[C@@H](c2ccccc2)CCN1)C(=O)NCc1cc(Cl)ccc1O.Cl [1078_6],1.31

# Same assay, conditions: Table A4-1; element CA2
row,Compound,"Ligand-pharmacophore element distance, pharmacophore element CA2"
1,C[C@H](NC(=O)[C@H]1C[C@@H](c2ccccc2)CCN1)C(=O)NCc1cc(Cl)ccc1O.Cl [1078_5],0.6
2,C[C@H](NC(=O)[C@H]1C[C@@H](c2ccccc2)CCN1)C(=O)NCc1cc(Cl)ccc1O.Cl [1078_6],0.65

# Same assay, conditions: Table A4-1; element CA3
row,Compound,"Ligand-pharmacophore element distance, pharmacophore element CA3"
1,C[C@H](NC(=O)[C@H]1C[C@@H](c2ccccc2)CCN1)C(=O)NCc1cc(Cl)ccc1O.Cl [1078_5],0
2,C[C@H](NC(=O)[C@H]1C[C@@H](c2ccccc2)CCN1)C(=O)NCc1cc(Cl)ccc1O.Cl [1078_6],0

# Same assay, conditions: Table A4-1; element CA4
row,Compound,"Ligand-pharmacophore element distance, pharmacophore element CA4"
1,C[C@H](NC(=O)[C@H]1C[C@@H](c2ccccc2)CCN1)C(=O)NCc1cc(Cl)ccc1O.Cl [1078_5],0
2,C[C@H](NC(=O)[C@H]1C[C@@H](c2ccccc2)CCN1)C(=O)NCc1cc(Cl)ccc1O.Cl [1078_6],0

# Same assay, conditions: Table A4-1; element CA5
row,Compound,"Ligand-pharmacophore element distance, pharmacophore element CA5"
1,C[C@H](NC(=O)[C@H]1C[C@@H](c2ccccc2)CCN1)C(=O)NCc1cc(Cl)ccc1O.Cl [1078_5],0
2,C[C@H](NC(=O)[C@H]1C[C@@H](c2ccccc2)CCN1)C(=O)NCc1cc(Cl)ccc1O.Cl [1078_6],0

# Same assay, conditions: Table A4-1; element CA6
row,Compound,"Ligand-pharmacophore element distance, pharmacophore element CA6"
1,C[C@H](NC(=O)[C@H]1C[C@@H](c2ccccc2)CCN1)C(=O)NCc1cc(Cl)ccc1O.Cl [1078_5],0
2,C[C@H](NC(=O)[C@H]1C[C@@H](c2ccccc2)CCN1)C(=O)NCc1cc(Cl)ccc1O.Cl [1078_6],0

# Same assay, conditions: Table A5-1 pharmacophore: distance between elements, S2/S1 region
Compound,"d(CA1,C5)","d(CA1,O1)","d(CA1,O2)","d(CA1,O4)","d(H4,O1)","d(H4,O2)","d(O1,O2)","d(O4,H2)"
C[C@H](NC(=O)[C@H]1C[C@@H](c2ccccc2)CCN1)C(=O)NCc1cc(Cl)ccc1O.Cl [1078_5],3.12,4.48,4.88,2.72,2.40,2.46,3.41,0.98
C[C@H](NC(=O)[C@H]1C[C@@H](c2ccccc2)CCN1)C(=O)NCc1cc(Cl)ccc1O.Cl [1078_6],3.11,5.90,–,2.75,2.75,–,–,0.98

# Same assay, conditions: Table A5-2 pharmacophore distance, S3/S4 region
Compound,"d(N2,C2)","d(N2,CA2)","d(O2,H3)","d(O2,N2)"
C[C@H](NC(=O)[C@H]1C[C@@H](c2ccccc2)CCN1)C(=O)NCc1cc(Cl)ccc1O.Cl [1078_5],1.45,5.65,3.24,2.95
C[C@H](NC(=O)[C@H]1C[C@@H](c2ccccc2)CCN1)C(=O)NCc1cc(Cl)ccc1O.Cl [1078_6],1.49,5.49,–,–

# Same assay, conditions: Table A6-1 pharmacophore angle
Compound,"a(C5, CA1, O1)","a(CA1, O1, O2)","a(CA1, O4, H2)","a(O1, CA1, O4)","a(O1, O2, H4)"
C[C@H](NC(=O)[C@H]1C[C@@H](c2ccccc2)CCN1)C(=O)NCc1cc(Cl)ccc1O.Cl [1078_5],164.79,117.54,131.80,55.67,90.82
C[C@H](NC(=O)[C@H]1C[C@@H](c2ccccc2)CCN1)C(=O)NCc1cc(Cl)ccc1O.Cl [1078_6],152.72,–,126.69,67.49,–

# Same assay, conditions: Table A6-2 pharmacophore angle
Compound,"a(O1, O2, H3)","a(O1, O2, N2)","a(O2, N2, C2)","a(O2, N2, CA2)"
C[C@H](NC(=O)[C@H]1C[C@@H](c2ccccc2)CCN1)C(=O)NCc1cc(Cl)ccc1O.Cl [1078_5],138.56,141.15,114.27,151.79

# Same assay, conditions: Table A7-1; between pharmacophore elements of the bound compound
Compound,"Pharmacophore torsion angle a(C5, CA1, O1, H4)","Pharmacophore torsion angle a(H4, O1, O2, H3)","Pharmacophore torsion angle a(H4, O1, O2, N2)","Pharmacophore torsion angle a(O1, H4, O2, CA1)","Pharmacophore torsion angle a(O1, O2, N2, C2)"
C[C@H](NC(=O)[C@H]1C[C@@H](c2ccccc2)CCN1)C(=O)NCc1cc(Cl)ccc1O.Cl [1078_5],21.83,−119.72,−115.76,−52.04,148.01
C[C@H](NC(=O)[C@H]1C[C@@H](c2ccccc2)CCN1)C(=O)NCc1cc(Cl)ccc1O.Cl [1078_6],−22.50,–,–,–,–

# Same assay, conditions: Table A7-2; between pharmacophore elements of the bound compound
row,Compound,"Pharmacophore torsion angle a(O1, O2, N2, CA2)"
1,C[C@H](NC(=O)[C@H]1C[C@@H](c2ccccc2)CCN1)C(=O)NCc1cc(Cl)ccc1O.Cl [1078_5],149.21
